Test results taken from patent publication US20250215012A1, “IKZF2 DEGRADERS AND USES THEREOF” (REGENTS OF THE UNIVERSITY OF MICHIGAN, priority 2022, published 2025).
pIC50: −log10 of the molar value. Where two headings read alike, the source gives them in different places.

What was measured:
[1] = target: GST-tagged wild-type human CRBN protein (Homo sapiens (Human), UniProt Q96SW2); assay: Cereblon Binding Assay (Cisbio Cereblon Binding Kit, TR-FRET); details: about 3 hours at room temperature
Experimental: (§1) The binding to cereblon (CRBN) is determined using the Cereblon Binding Kit (Cisbio, #64BDCRBNPEG) following the manufacturer's instruction. Briefly, serially diluted compounds are incubated with GST-tagged wild-type human CRBN protein, XL665-labelled Thalidomide and Europium Cryptate labelled GST antibody.
as §1, with “(CRBN) was” for “(CRBN) is”, “compounds were” for “compounds are”, “GST antibody at room temperature for about 3 hours.” for “GST antibody.”

IKZF2 = IKZF2 (Homo sapiens (Human), UniProt Q96SW2+Q9UKS7); assay: IKZF2 HiBiT Assay (Jurkat-IKZF2-HiBiT cell line); type: cell-based; details: for DC50: read-out: HiBit assay degradation analysis DC50; for Dmax: read-out: HiBit assay degradation analysis Dmax
Outline: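 IKZF2 degradation was assessed as HiBiT luminescence in Jurkat-IKZF2-HiBiT cells, using lytic detection after 24 h of compound treatment at 37 °C, 5% CO2.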

[2] = Jurkat-IKZF2-HiBiT cells, 24 hours

Sequence of IKZF2 (Q9UKS7 whole entry): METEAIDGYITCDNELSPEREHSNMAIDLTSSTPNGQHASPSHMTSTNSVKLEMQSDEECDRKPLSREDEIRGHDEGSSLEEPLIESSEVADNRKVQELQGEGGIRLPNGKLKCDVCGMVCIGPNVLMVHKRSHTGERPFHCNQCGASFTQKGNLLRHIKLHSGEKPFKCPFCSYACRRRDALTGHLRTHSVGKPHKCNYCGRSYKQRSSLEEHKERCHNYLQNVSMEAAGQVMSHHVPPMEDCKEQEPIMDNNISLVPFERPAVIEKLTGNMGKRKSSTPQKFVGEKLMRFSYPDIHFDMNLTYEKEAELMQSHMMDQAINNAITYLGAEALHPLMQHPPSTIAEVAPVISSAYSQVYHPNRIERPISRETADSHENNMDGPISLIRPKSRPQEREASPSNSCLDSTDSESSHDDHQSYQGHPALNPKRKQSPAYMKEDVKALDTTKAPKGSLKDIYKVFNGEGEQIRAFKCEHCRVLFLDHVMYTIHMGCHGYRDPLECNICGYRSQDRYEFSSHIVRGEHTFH
Sequence of IKZF2 (Q96SW2 whole entry): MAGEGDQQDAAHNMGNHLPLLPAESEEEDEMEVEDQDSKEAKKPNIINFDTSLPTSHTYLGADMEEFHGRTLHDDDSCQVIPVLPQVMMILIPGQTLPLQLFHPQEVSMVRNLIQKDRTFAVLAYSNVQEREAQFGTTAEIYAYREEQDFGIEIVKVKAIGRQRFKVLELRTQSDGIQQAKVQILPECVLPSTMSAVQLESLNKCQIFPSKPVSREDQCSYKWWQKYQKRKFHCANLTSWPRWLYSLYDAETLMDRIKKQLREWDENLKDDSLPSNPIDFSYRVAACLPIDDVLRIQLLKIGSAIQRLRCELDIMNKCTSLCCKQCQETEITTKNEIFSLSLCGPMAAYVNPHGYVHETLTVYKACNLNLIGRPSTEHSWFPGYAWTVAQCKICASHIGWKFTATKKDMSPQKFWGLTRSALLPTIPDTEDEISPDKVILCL
Sequence of IKZF2 (Q16531 whole entry partner): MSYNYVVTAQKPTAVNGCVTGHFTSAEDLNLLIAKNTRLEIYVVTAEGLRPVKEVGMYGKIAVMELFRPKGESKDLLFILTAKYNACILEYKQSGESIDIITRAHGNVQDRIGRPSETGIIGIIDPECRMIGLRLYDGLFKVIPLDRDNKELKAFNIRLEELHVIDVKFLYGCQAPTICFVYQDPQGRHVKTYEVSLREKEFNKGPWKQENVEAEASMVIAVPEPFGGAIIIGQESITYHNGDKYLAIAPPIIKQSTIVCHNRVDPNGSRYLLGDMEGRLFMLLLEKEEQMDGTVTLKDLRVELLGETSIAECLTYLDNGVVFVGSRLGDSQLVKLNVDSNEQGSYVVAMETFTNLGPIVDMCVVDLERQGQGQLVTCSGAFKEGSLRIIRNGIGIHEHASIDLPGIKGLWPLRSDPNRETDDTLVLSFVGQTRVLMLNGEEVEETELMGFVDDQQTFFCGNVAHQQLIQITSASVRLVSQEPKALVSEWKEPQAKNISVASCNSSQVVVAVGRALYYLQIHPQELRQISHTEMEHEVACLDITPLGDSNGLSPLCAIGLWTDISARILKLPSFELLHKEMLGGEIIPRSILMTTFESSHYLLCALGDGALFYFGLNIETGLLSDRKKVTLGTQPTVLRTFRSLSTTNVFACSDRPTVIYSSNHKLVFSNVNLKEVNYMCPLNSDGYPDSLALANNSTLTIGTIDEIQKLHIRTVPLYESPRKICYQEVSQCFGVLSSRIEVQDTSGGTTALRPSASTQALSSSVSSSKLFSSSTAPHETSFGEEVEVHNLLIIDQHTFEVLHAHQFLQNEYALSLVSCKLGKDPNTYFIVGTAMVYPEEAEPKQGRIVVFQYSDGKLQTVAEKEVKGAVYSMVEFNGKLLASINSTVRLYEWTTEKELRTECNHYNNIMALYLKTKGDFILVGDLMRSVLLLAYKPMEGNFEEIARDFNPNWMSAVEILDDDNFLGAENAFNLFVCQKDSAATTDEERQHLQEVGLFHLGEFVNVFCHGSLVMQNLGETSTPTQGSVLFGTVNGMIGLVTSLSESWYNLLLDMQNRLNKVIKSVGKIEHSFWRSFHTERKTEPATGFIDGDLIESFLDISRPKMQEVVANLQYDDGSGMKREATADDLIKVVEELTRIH
Sequence of GST-tagged wild-type human CRBN protein (Q96SW2 whole entry): as the sequence (Q96SW2 whole entry) above

SMILES | pIC50 [1] | DC50 (IKZF2; [2]) | Dmax (IKZF2; [2]) | Dmax (IKZF2)
O=C1CCC(N2Cc3c(ccc4c3OCC43CCN(Cc4cccc(-c5cnco5)c4)CC3)C2=O)C(=O)N1 (stereo not drawn) [Compound A125, 3-(1′-(3-(oxazol-5-yl)benzyl)-6-oxo-6,8-dihydro-2H,7H-spiro[furo[2,3-e]isoindole-3,4′-piperidin]-7-yl)piperidine-2,6-dione] | 6.00 to 7.00 | < 0.05 µM | 60 to 80% | 
O=C1CCC(N2Cc3c(ccc4c3OCC43CCN(Cc4cccc5[nH]ccc45)CC3)C2=O)C(=O)N1 (stereo not drawn) [Compound A87, 3-(1′-((1H-indol-4-yl)methyl)-6-oxo-6,8-dihydro-2H,7H-spiro[furo[2,3-e]isoindole-3,4′-piperidin]-7-yl)piperidine-2,6-dione] | 6.00 to 7.00 | < 0.05 µM | > 80% | 
Cn1ccc(-c2cccc(CN3CCC4(CC3)COc3c4ccc4c3CN(C3CCC(=O)NC3=O)C4=O)c2)n1 (stereo not drawn) [Compound A134, 3-(1′-(3-(1-methyl-1H-pyrazol-3-yl)benzyl)-6-oxo-6,8-dihydro-2H,7H-spiro[furo[2,3-e]isoindole-3,4′-piperidin]-7-yl)piperidine-2,6-dione] | 6.00 to 7.00 | < 0.05 µM | 60 to 80% | 
O=C1CCC(N2Cc3c(ccc4c3OCC43CCN(Cc4ccc(C(F)F)cc4)CC3)C2=O)C(=O)N1 (stereo not drawn) [Compound A3, 3-(1′-(4-(difluoromethyl)benzyl)-6-oxo-6,8-dihydro-2H,7H-spiro[furo[2,3-e]isoindole-3,4′-piperidin]-7-yl)piperidine-2,6-dione] | 7.00 to 8.00 | > 0.5 µM | 40 to 60% | 
O=C1CCC(N2Cc3c(ccc4c3OCC43CCN(Cc4cccc5cn[nH]c45)CC3)C2=O)C(=O)N1 (stereo not drawn) [Compound A52, 3-(1′-((1H-indazol-7-yl)methyl)-6-oxo-6,8-dihydro-2H,7H-spiro[furo[2,3-e]isoindole-3,4′-piperidin]-7-yl)piperidine-2,6-dione] | 7.00 to 8.00 | < 0.05 µM | 60 to 80% | 
O=C1CCC(N2Cc3c(ccc4c3OCC43CCN(Cc4ccc5ccoc5c4)CC3)C2=O)C(=O)N1 (stereo not drawn) [Compound A116, 3-(1′-(benzofuran-6-ylmethyl)-6-oxo-6,8-dihydro-2H,7H-spiro[furo[2,3-e]isoindole-3,4′-piperidin]-7-yl)piperidine-2,6-dione] | 6.00 to 7.00 | < 0.05 µM | 60 to 80% | 
O=C1CCC(N2Cc3c(ccc4c3OCC43CCN(Cc4ccc5c(c4)NC(=O)C5)CC3)C2=O)C(=O)N1 (stereo not drawn) [Compound A131, 3-(6-oxo-1′-((2-oxoindolin-6-yl)methyl)-6,8-dihydro-2H,7H-spiro[furo[2,3-e]isoindole-3,4′-piperidin]-7-yl)piperidine-2,6-dione] | 6.00 to 7.00 | 0.05 to 0.2 µM | 60 to 80% | 
O=C1CCC(N2Cc3c(ccc4c3OCC43CCN(Cc4cccc(-c5cccnc5)c4)CC3)C2=O)C(=O)N1 (stereo not drawn) [Compound A132, 3-(6-oxo-1′-(3-(pyridin-3-yl)benzyl)-6,8-dihydro-2H,7H-spiro[furo[2,3-e]isoindole-3,4′-piperidin]-7-yl)piperidine-2,6-dione] | 6.00 to 7.00 | < 0.05 µM | 60 to 80% | 
O=C1CCC(N2Cc3c(ccc4c3OCC43CCNCC3)C2=O)C(=O)N1 (stereo not drawn) [Compound A1, 3-(6-oxo-6,8-dihydro-2H,7H-spiro[furo[2,3-e]isoindole-3,4′-piperidin]-7-yl)piperidine-2,6-dione] | < 6.00 | > 0.5 µM |  | < 40%
O=C1CCC(N2Cc3c(ccc4c3OCC43CCN(Cc4ccccc4)CC3)C2=O)C(=O)N1 (stereo not drawn) [Compound A8, 3-(1′-benzyl-6-oxo-6,8-dihydro-2H,7H-spiro[furo[2,3-e]isoindole-3,4′-piperidin]-7-yl)piperidine-2,6-dione] | 6.00 to 7.00 | 0.2 to 0.5 µM | 40 to 60% | 
O=C1CCC(N2Cc3c(ccc4c3OCC43CCN(Cc4cccc(-c5cnn(C6COC6)c5)c4)CC3)C2=O)C(=O)N1 (stereo not drawn) [Compound A161, 3-(1′-(3-(1-(oxetan-3-yl)-1H-pyrazol-4-yl)benzyl)-6-oxo-6,8-dihydro-2H,7H-spiro[furo[2,3-e]isoindole-3,4′-piperidin]-7-yl)piperidine-2,6-dione] | 7.00 to 8.00 | < 0.05 µM | 60 to 80% | 
Cc1ccc(CN2CCC3(CC2)COc2c3ccc3c2CN(C2CCC(=O)NC2=O)C3=O)cc1 (stereo not drawn) [Compound A15, 3-(1′-(4-methylbenzyl)-6-oxo-6,8-dihydro-2H,7H-spiro[furo[2,3-e]isoindole-3,4′-piperidin]-7-yl)piperidine-2,6-dione] | 6.00 to 7.00 | 0.2 to 0.5 µM | 40 to 60% | 
O=C1CCC(N2Cc3c(ccc4c3OCC43CCN(Cc4cc(Cl)cc5[nH]ncc45)CC3)C2=O)C(=O)N1 (stereo not drawn) [Compound A128, 3-(1′-((6-chloro-1H-indazol-4-yl)methyl)-6-oxo-6,8-dihydro-2H,7H-spiro[furo[2,3-e]isoindole-3,4′-piperidin]-7-yl)piperidine-2,6-dione] | 6.00 to 7.00 | 0.05 to 0.2 µM | 40 to 60% | 
Cc1cc(C)cc(CN2CCC3(CC2)COc2c3ccc3c2CN(C2CCC(=O)NC2=O)C3=O)c1 (stereo not drawn) [Compound A31, 3-(1′-(3,5-dimethylbenzyl)-6-oxo-6,8-dihydro-2H,7H-spiro[furo[2,3-e]isoindole-3,4′-piperidin]-7-yl)piperidine-2,6-dione] | 6.00 to 7.00 | 0.2 to 0.5 µM | 60 to 80% | 
O=C1CCC(N2Cc3c(ccc4c3OCC43CCN(Cc4cccc(-c5ccncc5)c4)CC3)C2=O)C(=O)N1 (stereo not drawn) [Compound A133, 3-(6-oxo-1′-(3-(pyridin-4-yl)benzyl)-6,8-dihydro-2H,7H-spiro[furo[2,3-e]isoindole-3,4′-piperidin]-7-yl)piperidine-2,6-dione] | 6.00 to 7.00 | < 0.05 µM | 60 to 80% | 
Cn1ccc2ccc(CN3CCC4(CC3)COc3c4ccc4c3CN(C3CCC(=O)NC3=O)C4=O)cc21 (stereo not drawn) [Compound A130, 3-(1′-((1-methyl-1H-indol-6-yl)methyl)-6-oxo-6,8-dihydro-2H,7H-spiro[furo[2,3-e]isoindole-3,4′-piperidin]-7-yl)piperidine-2,6-dione] | 6.00 to 7.00 | < 0.05 µM | 60 to 80% | 
O=C1CCC(N2Cc3c(ccc4c3OCC43CCN(Cc4ccc5cn[nH]c5c4)CC3)C2=O)C(=O)N1 (stereo not drawn) [Compound A56, 3-(1′-((1H-indazol-6-yl)methyl)-6-oxo-6,8-dihydro-2H,7H-spiro[furo[2,3-e]isoindole-3,4′-piperidin]-7-yl)piperidine-2,6-dione] | 6.00 to 7.00 | < 0.05 µM | 60 to 80% | 
CCc1ccc(CN2CCC3(CCOc4c3ccc3c4CN(C4CCC(=O)NC4=O)C3=O)CC2)cc1 (stereo not drawn) [Compound A11, 3-(1-(4-ethylbenzyl)-7′-oxo-2′,3′,7′,9′-tetrahydro-8′H-spiro[piperidine-4,4′-pyrano[2,3-e]isoindol]-8′-yl)piperidine-2,6-dione] | 7.00 to 8.00 | > 0.5 µM | 40 to 60% | 
CCn1cc(-c2cccc(CN3CCC4(CC3)COc3c4ccc4c3CN(C3CCC(=O)NC3=O)C4=O)c2)cn1 (stereo not drawn) [Compound A145, 3-(1′-(3-(1-ethyl-1H-pyrazol-4-yl)benzyl)-6-oxo-6,8-dihydro-2H,7H-spiro[furo[2,3-e]isoindole-3,4′-piperidin]-7-yl)piperidine-2,6-dione] | 7.00 to 8.00 | < 0.05 µM | 60 to 80% | 
O=C1CCC(N2Cc3c(ccc4c3OCC43CCN(Cc4ccc5cc[nH]c5c4)CC3)C2=O)C(=O)N1 (stereo not drawn) [Compound A129, 3-(1′-((1H-indol-6-yl)methyl)-6-oxo-6,8-dihydro-2H,7H-spiro[furo[2,3-e]isoindole-3,4′-piperidin]-7-yl)piperidine-2,6-dione] | 7.00 to 8.00 | < 0.05 µM | 60 to 80% | 
O=C1CCC(N2Cc3c(ccc4c3OCC43CCN(Cc4ccc5c(c4)C(=O)NC5)CC3)C2=O)C(=O)N1 (stereo not drawn) [Compound A122, 3-(6-oxo-1′-((3-oxoisoindolin-5-yl)methyl)-6,8-dihydro-2H,7H-spiro[furo[2,3-e]isoindole-3,4′-piperidin]-7-yl)piperidine-2,6-dione] | 6.00 to 7.00 | 0.05 to 0.2 µM | 60 to 80% | 
O=C1CCC(N2Cc3c(ccc4c3OCC43CCN(Cc4cccc(-n5cncn5)c4)CC3)C2=O)C(=O)N1 (stereo not drawn) [Compound A124, 3-(1′-(3-(1H-1,2,4-triazol-1-yl)benzyl)-6-oxo-6,8-dihydro-2H,7H-spiro[furo[2,3-e]isoindole-3,4′-piperidin]-7-yl)piperidine-2,6-dione] | 6.00 to 7.00 | 0.2 to 0.5 µM | 40 to 60% | 
O=C1CCC(N2Cc3c(ccc4c3OCC43CCN(Cc4ccc(F)c(F)c4)CC3)C2=O)C(=O)N1 (stereo not drawn) [Compound A5, 3-(1′-(3,4-difluorobenzyl)-6-oxo-6,8-dihydro-2H,7H-spiro[furo[2,3-e]isoindole-3,4′-piperidin]-7-yl)piperidine-2,6-dione] | 6.00 to 7.00 | > 0.5 µM | < 40% | 
Cn1cc(-c2cccc(CN3CCC4(CC3)COc3c4ccc4c3CN(C3CCC(=O)NC3=O)C4=O)c2)cn1 (stereo not drawn) [Compound A105, 3-(1′-(3-(1-methyl-1H-pyrazol-4-yl)benzyl)-6-oxo-6,8-dihydro-2H,7H-spiro[furo[2,3-e]isoindole-3,4′-piperidin]-7-yl)piperidine-2,6-dione] | 6.00 to 7.00 | < 0.05 µM | 60 to 80% | 
